Data taken from ChEMBL document CHEMBL1201862, “PubChem BioAssay data set” (2004).
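48-hour exposure; five concentrations; linearly interpolated endpoints. GI50 = concentration required for 50% inhibition of growth.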 Calls of active or inactive are those of the source. Rule as the data show it: active = GI50 up to about 1.1 µM and inactive = higher.

Key:
Experiment in all cases: NCI-60 cell line screen, 48 h
T47D = test system: T47D
SNB-75 = test system: SNB-75
M14 = test system: M14
UACC-62 = test system: UACC-62
HCT-15 = test system: HCT-15
NCI-H460 = test system: NCI-H460
IGROV-1 = test system: IGROV-1
BT-549 = test system: BT-549
Malme-3M = test system: Malme-3M
SF-268 = test system: SF-268
OVCAR-8 = test system: OVCAR-8
KM12 = test system: KM12
HCT-116 = test system: HCT-116
NCI-H23 = test system: NCI-H23
NCI/ADR-RES = test system: NCI/ADR-RES
TK-10 = test system: TK-10
786-0 = test system: 786-0
ACHN = test system: ACHN
SF-295 = test system: SF-295
SR = test system: SR

SMILES | GI50 (T47D) | GI50 (SNB-75) | GI50 (M14) | GI50 (UACC-62) | GI50 (HCT-15) [µM] | GI50 (NCI-H460) | GI50 (IGROV-1) | GI50 (BT-549) | GI50 (Malme-3M) | GI50 (SF-268) | GI50 (OVCAR-8) | GI50 (KM12) | GI50 (HCT-116) | GI50 (NCI-H23) | GI50 (NCI/ADR-RES) | GI50 (TK-10) | GI50 (786-0) | GI50 (ACHN) | GI50 (SF-295) | GI50 (SR)
COC(=O)C1C/C(=C/N(C)C)C(=S)N1 (stereo not given) | > 100 µM (inactive) | > 100 µM (inactive) | > 100 µM (inactive) | > 100 µM (inactive) | > 100 | 11.6 µM (inactive) | > 100 µM (inactive) | > 100 µM (inactive) | > 100 µM (inactive) | > 100 µM (inactive) | > 100 µM (inactive) | > 100 µM (inactive) | > 100 µM (inactive) | > 100 µM (inactive) | > 100 µM (inactive) | > 100 µM (inactive) | > 100 µM (inactive) | > 100 µM (inactive) | > 100 µM (inactive) | > 100 µM (inactive)
O=S(=O)(O)C(c1ccccc1)C(O)c1ccccc1 (stereo not given) | > 100 µM (inactive) | > 100 µM (inactive) | > 100 µM (inactive) | > 100 µM (inactive) | > 100 | > 100 µM (inactive) | > 100 µM (inactive) | > 100 µM (inactive) | > 100 µM (inactive) | > 100 µM (inactive) | > 100 µM (inactive) | > 100 µM (inactive) | > 100 µM (inactive) | > 100 µM (inactive) | > 100 µM (inactive) | > 100 µM (inactive) | > 100 µM (inactive) | > 100 µM (inactive) | > 100 µM (inactive) | > 100 µM (inactive)
COc1ccc2c(c1)CC[C@@H]1[C@@H]2CC[C@]2(C)C(=O)/C(=C/c3ccncc3)C[C@@H]12 | 33.3 µM (inactive) | 32.1 µM (inactive) | 31.7 µM (inactive) | 31.6 µM (inactive) | 41.4 | 27.8 µM (inactive) | 56.1 µM (inactive) | 67.5 µM (inactive) | 25.8 µM (inactive) | 36.1 µM (inactive) | 51.6 µM (inactive) | 27.2 µM (inactive) | 28.2 µM (inactive) | 35.3 µM (inactive) | 48.8 µM (inactive) | 30.6 µM (inactive) | 32.3 µM (inactive) | 42.5 µM (inactive) | 22.4 µM (inactive) | 47.2 µM (inactive)
NC(=O)c1ncn(C2OC(CO)C(O)C2O)c1NC=O (stereo not given) | > 100 µM (inactive) | > 100 µM (inactive) | > 100 µM (inactive) | > 100 µM (inactive) | > 100 | > 100 µM (inactive) | > 100 µM (inactive) | > 100 µM (inactive) | > 100 µM (inactive) | > 100 µM (inactive) | > 100 µM (inactive) | > 100 µM (inactive) | > 100 µM (inactive) | > 100 µM (inactive) | > 100 µM (inactive) | > 100 µM (inactive) | > 100 µM (inactive) | > 100 µM (inactive) | > 100 µM (inactive) | > 100 µM (inactive)
O=[N+]([O-])c1ccc(C(Nc2ccccc2)c2ccc3cccnc3c2O)cc1 (stereo not given) | 5.25 µM (inactive) | 6.67 µM (inactive) | 9.4 µM (inactive) | 12.9 µM (inactive) | 4.26 | 3.24 µM (inactive) | 10.6 µM (inactive) | 10.3 µM (inactive) | 14.7 µM (inactive) | 4.46 µM (inactive) | 3.85 µM (inactive) | 7.94 µM (inactive) | 7.8 µM (inactive) | 11.5 µM (inactive) | 3.67 µM (inactive) | 8.49 µM (inactive) | 4.37 µM (inactive) | 5.61 µM (inactive) | 4.37 µM (inactive) | 0.474 µM (active)
C[N+](C)(C)C(Cc1c[nH]c(=S)[nH]1)C(=O)O (stereo not given) | > 100 µM (inactive) | > 100 µM (inactive) | > 100 µM (inactive) | > 100 µM (inactive) | > 100 | > 100 µM (inactive) | > 100 µM (inactive) | > 100 µM (inactive) | > 100 µM (inactive) | > 100 µM (inactive) | > 100 µM (inactive) | > 100 µM (inactive) | > 100 µM (inactive) | > 100 µM (inactive) | > 100 µM (inactive) | > 100 µM (inactive) | > 100 µM (inactive) | > 100 µM (inactive) | > 100 µM (inactive) | > 100 µM (inactive)
COc1ccc2c(c1OC(C)=O)C1=CC(=O)CCC13CCNC3C2 (stereo not given) | > 100 µM (inactive) | > 100 µM (inactive) | > 100 µM (inactive) | > 100 µM (inactive) | > 100 | > 100 µM (inactive) | > 100 µM (inactive) | > 100 µM (inactive) | > 100 µM (inactive) | > 100 µM (inactive) | > 100 µM (inactive) | > 100 µM (inactive) | > 100 µM (inactive) | > 100 µM (inactive) | > 100 µM (inactive) | > 100 µM (inactive) | > 100 µM (inactive) | > 100 µM (inactive) | > 100 µM (inactive) | > 100 µM (inactive)
Nc1nc(SCC(=O)c2ccc(Br)cc2)c2nc[nH]c2n1 | 25.8 µM (inactive) | 28 µM (inactive) | 40.5 µM (inactive) | 37.7 µM (inactive) | 30.1 | 28.7 µM (inactive) | 13.6 µM (inactive) | 27 µM (inactive) | 29.4 µM (inactive) | 23 µM (inactive) | 28.8 µM (inactive) | 44.8 µM (inactive) | 31.2 µM (inactive) | 45.2 µM (inactive) | 27.4 µM (inactive) | 20.8 µM (inactive) | 42.2 µM (inactive) | 34 µM (inactive) | 34.8 µM (inactive) | 17.9 µM (inactive)
N#C/C(=C\c1ccc2[nH]ccc2c1)C(=O)NCCCCNC(=O)/C(C#N)=C/c1ccc2[nH]ccc2c1 | > 10 µM (inactive) | > 31.6 µM (inactive) | > 31.6 µM (inactive) | > 31.6 µM (inactive) | > 31.6 | > 31.6 µM (inactive) | > 31.6 µM (inactive) | > 10 µM (inactive) | > 31.6 µM (inactive) | > 31.6 µM (inactive) | > 31.6 µM (inactive) | > 31.6 µM (inactive) | > 31.6 µM (inactive) | > 31.6 µM (inactive) | > 10 µM (inactive) | > 31.6 µM (inactive) | > 31.6 µM (inactive) | > 31.6 µM (inactive) | > 31.6 µM (inactive) | > 31.6 µM (inactive)
CCOC(=O)CN1C(=O)c2cc([N+](=O)[O-])cc3cc([N+](=O)[O-])cc(c23)C1=O | > 100 µM (inactive) | 84.3 µM (inactive) | 24.7 µM (inactive) | 22.8 µM (inactive) | 17.3 | 73.6 µM (inactive) | > 66.1 µM (inactive) | > 28.6 µM (inactive) | 43.5 µM (inactive) | 18.4 µM (inactive) | 27.9 µM (inactive) | > 100 µM (inactive) | 15 µM (inactive) | 99.3 µM (inactive) | > 80.4 µM (inactive) | > 100 µM (inactive) | 48.8 µM (inactive) | 40 µM (inactive) | 72.3 µM (inactive) | 1.45 µM (inactive)
O=C1Nc2ccccc2/C1=N/N1C(=O)/C(=C/c2ccccc2S)N=C1c1ccccc1 | 25.5 µM (inactive) | > 100 µM (inactive) | > 100 µM (inactive) | 90.6 µM (inactive) | 83 | 73.6 µM (inactive) | 97.1 µM (inactive) | 91 µM (inactive) | > 100 µM (inactive) | > 100 µM (inactive) | 36.2 µM (inactive) | 66.4 µM (inactive) | 99.8 µM (inactive) | 57.7 µM (inactive) | > 100 µM (inactive) | > 100 µM (inactive) | 79.8 µM (inactive) | 92.3 µM (inactive) | > 100 µM (inactive) | 21.3 µM (inactive)
COc1cccc(CCN2CCN(CCCc3ccccc3)CC2)c1 | 43.6 µM (inactive) | 63.1 µM (inactive) | 21.2 µM (inactive) | > 100 µM (inactive) | 31.7 | 78 µM (inactive) | > 100 µM (inactive) | 40.1 µM (inactive) | 55.5 µM (inactive) | > 100 µM (inactive) | > 100 µM (inactive) | 51.8 µM (inactive) | 53.7 µM (inactive) | 53 µM (inactive) | > 100 µM (inactive) | > 100 µM (inactive) | 63.8 µM (inactive) | > 100 µM (inactive) | 43 µM (inactive) | 30.5 µM (inactive)
COC(=O)C(CCC(=O)CCl)N1C(=O)c2ccccc2C1=O (stereo not given) | 6.25 µM (inactive) | 8.13 µM (inactive) | 5.27 µM (inactive) | 10.8 µM (inactive) | 4.25 | 12.2 µM (inactive) | 12.4 µM (inactive) | 8.97 µM (inactive) | 4.57 µM (inactive) | 9.42 µM (inactive) | 12.3 µM (inactive) | 20.2 µM (inactive) | 5.07 µM (inactive) | 9.89 µM (inactive) | 9.42 µM (inactive) | 14.5 µM (inactive) | 4.05 µM (inactive) | 13.3 µM (inactive) | 17.7 µM (inactive) | 3.39 µM (inactive)
COc1ccc2c(c1C)C(=O)C(O)(CC=C(C)C)O2 (stereo not given) | > 100 µM (inactive) | > 100 µM (inactive) | > 100 µM (inactive) | > 100 µM (inactive) | > 100 | > 100 µM (inactive) | > 100 µM (inactive) | > 100 µM (inactive) | > 100 µM (inactive) | > 100 µM (inactive) | > 100 µM (inactive) | > 100 µM (inactive) | > 100 µM (inactive) | > 100 µM (inactive) | > 100 µM (inactive) | > 100 µM (inactive) | > 100 µM (inactive) | > 100 µM (inactive) | > 100 µM (inactive) | > 100 µM (inactive)
